Data as given in patent US9855255B1, “Substituted naphthyridinyl hydrazines as anti-liver cancer agents” (KING SAUD UNIVERSITY, priority 2017, dated 2018).
In brackets after ≈: the same amount, converted by molar mass.

Experiments:
HepG2 (Liver) = test: MTT cell proliferation and viability assay on liver HEPG2 cancer cell line; format: cell-based; settings: Homo sapiens, 48 hours, read-out: IC50 cytotoxic activity
Method: In the following examples, human cancer cell line HepG2 (Liver) was grown in DMEM media supplemented with 10% bovine serum, 1× penicillin-streptomycin (Sigma-Aldrich) at 37° C. in a humidified chamber with 5% CO2. 5-Flurourasil (Sigma-Aldrich) was used as the reference drug (standard).
Cells were seeded (1×10^5 cells/well in triplicate) in a 96-well flat-bottom plate (Becton-Dickinson Lab ware) a day before treatment and grown. Stocks of all extracts/compounds (1.0 mg/ml) were made with 5% DMSO (Sigma-Aldrich), and further working solutions (100 μg/ml) were prepared in serum-free culture media. Cells were treated with four different doses (2, 6.2, 12.5, and 25 μg/ml; in triplicate) of the compounds in complete growth media, including reference drug, and further incubated for 48 hours.
On day 2 of treatment, cell proliferation and viability test was performed using TACS MTT Cell Proliferation and Viability Assay Kit (TACS), as per manufacturer's instructions. The relationship between surviving fraction and compound concentration was plotted to obtain the survival curve of cancer cell lines. The response parameter calculated was the IC50 value, which corresponds to the concentration required for 50% inhibition of cell viability.

[1] = Effect on biochemical parameters in mice serum; format: in vivo; settings: single i.p. 12 mg/kg, blood after 7 days; for Albumin / Bilirubin / Cholestrol / Creatinine / Globulin / Total Lipids / Triglycerides / Alanine amino transferase ALT / Alkaline phosphatase ALP / Aspartate amino transferase AST: Mean + S.D.; for Alanine amino transferase ALT / Alkaline phosphatase ALP / Aspartate amino transferase AST: 12 mg/kg
From the text: Male albino mice, weighing 18-20 g each, were used in a study. The mice were divided into three main groups, as follows. Group 1 is the untreated control group (5 mice); Group 2 is divided into two subgroups (5 mice in each subgroup), treated with either 5-FU (5-Fluorouracil) or DOX (Doxorubicin) as reference anticancer drugs. Group 3 is divided into ten subgroups (5 mice for each subgroup) and treated with the present substituted naphthyridinyl hydrazine compounds. The mice were housed in wide cages and well aerated rooms, and fed standard diets and clean water. Blood collection from the animals was done with heparinized cannula, and the mice were left alive.
For treatment, in Group 1, each mouse was given a single intraperitoneal (i.p.) injection of 0.1 mL DMSO; in Group 2, each mouse was given a single i.p. injection of 0.1 mL containing 12 mg/kg body weight of 5-FU or DOX dissolved in sterile water; and in Group 3, each mouse was given a single intraperitoneal injection of 0.1 mL containing 12 mg/kg body weight of the selected furan derivatives dissolved in 0.01% DMSO. Blood was collected after 7 days from all mouse groups.
The biochemical effects of formula 1 compounds on some liver enzymes in mouse blood serum was studied. Effects on aspartate and alanine aminotransferases (AST and ALT), and alkaline phosphatase (ALP), were examined using a blood auto analyzer, Olympus AV 400, Japan. Moreover, albumin, globulins, creatinine, total lipids, cholesterol, triglycerides, and bilirubin were evaluated, in comparison to treatment using 5-FU or DOX. Statistical analysis of the results was performed using Chi-square values (SPSS computer program).

HepG2 cells = test: Phase contrast microscopy of morphological changes in HepG2 cells; format: cell-based, human; settings: for Morphological changes of HepG2 cells: 10 μg
Method: (§1) The cells were seeded in 6-well plates and allowed to adhere at 37° C. in a CO2 incubator. After 24 h, each well was treated with 10 μg compound and incubated for the indicated time. After 24 and 48 hrs, the cells were imaged by phase contrast microscope (Olympus CLX 41) to visualize morphological changes in HepG2 cells.
as §1, with “A. The” for “The”, “in” for “in a”, “μg of” for “μg”, “compound 6” for “compound”
A. Change in HepG2 cells after treatment with compound 6 was studied for morphological variations using the phase contrast microscopy.
Many characteristic features occur in cells undergoing a series of biochemical events during apoptosis. Various morphological changes, such as blebbing, loss of membrane asymmetry, cell shrinkage, nuclear fragmentation, chromatin condensation, and chromosomal DNA fragmentation occur.

[2] = tested on: various human cancer cell lines; test: Single-dose screening against a variety of human cancer cell lines; format: cell-based; settings: leukemia, non-small cell lung, colon, CNS, melanoma, ovarian, renal, prostate, breast cancer cell lines
From the text: FIGS. 5A and 5B are a chart showing results of single-dose screening for various human cancer cell lines treated with compound 6 (a substituted naphthyridinyl hydrazine according to the present invention).

HeLa cells = test: Phase contrast microscopy of morphological changes in HeLa cells; format: cell-based; settings: after 12 and 24 hrs
Method: B. Similar studies were done with HeLa cells. Cells were seeded in 6-well plates and allowed to adhere at 37° C. in CO2 incubator. After 24 h, each well was treated with 4.6 μM 2,6P-OLA and incubated for the indicated time. After 12 and 24 h, the cells were imaged by phase contrast microscope (Olympus CLX 41) to visualize morphological changes in HeLa cells.
B. Change in LeLa cells after treatment with compound 6 was also studied for morphological variations using the phase contrast microscopy.

Q: For `O=c1[nH]cc(F)c(=O)[nH]1` [Compound 5-FU, 5-Fluorouracil], which IC50 (HepG2 (Liver)) is on record?
A: The IC50 was 5 µg/mL (≈ 38.4 µM).

Q: What about the A/G ratio [1] of the same compound?
A: Its A/G ratio is 1.13.

Q: What about the Albumin [1] of the same compound?
A: Its Albumin is 6.49 ± 0.92 mg/d1.

Q: And the Bilirubin [1]?
A: Its Bilirubin is 0.75 ± 0.10 mg/dL.

Q: What about the Cholestrol [1] of the same compound?
A: Its Cholestrol is 105.9 ± 11.7 mg/dL.

Q: What about the Creatinine [1] of the same compound?
A: The Creatinine was 0.81 ± 0.06 mg/dL.

Q: And the Globulin [1]?
A: The Globulin was 5.75 ± 0.8 mg/dL.

Q: And the “Total Lipids” value [1]?
A: The value was 378.2 ± 31.4 mg/dL.

Q: And the Triglycerides [1]?
A: Its Triglycerides is 126.5 ± 19.4 mg/dL.

Q: For `Cc1ccc2c(N/N=C/c3ccccc3[N+](=O)[O-])cc(C)nc2n1` [Compound 6, (E)-2-(2-Nitrobenzylidene)-1-(2,7-dimethyl-1,8-naphthyridin-5-yl)hydrazine], which “Morphological changes of HepG2 cells” value (HepG2 cells; 24 hours, FIG. 7B) is on record?
A: Its value is “onset of apoptotic characteristics”.

Q: And the “Morphological changes of HepG2 cells” value (HepG2 cells; 48 hours, FIG. 7C)?
A: Its value is “blebbing and loss of basal attachment and membrane asymmetry is markedly seen”.

Q: What about the “Morphological variations of HepG2 cells” value (HepG2 cells; after 24 and 48 hrs, phase contrast microscopy) of the same compound?
A: Its value is “Changes in surface morphology”.

Q: And the IC50 (HepG2 (Liver))?
A: Its IC50 is 0.885 µg/mL (≈ 2.75 µM).

Q: And the melting point?
A: The melting point was 255 to 256 °C.

Q: What about the A/G ratio [1] of the same compound?
A: The A/G ratio was 1.23.

Q: And the Albumin [1]?
A: Its Albumin is 7.73 ± 0.52 mg/d1.

Q: What about the Bilirubin [1] of the same compound?
A: Its Bilirubin is 0.76 ± 0.15 mg/dL.

Q: What about the Cholestrol [1] of the same compound?
A: The Cholestrol was 93.24 ± 19.53 mg/dL.

Q: And the Creatinine [1]?
A: Its Creatinine is 0.71 ± 0.21 mg/dL.

Q: What about the Globulin [1] of the same compound?
A: Its Globulin is 6.25 ± 0.82 mg/dL.

Q: And the “Total Lipids” value [1]?
A: Its value is 326.32 ± 19.3 mg/dL.

Q: What about the Triglycerides [1] of the same compound?
A: Its Triglycerides is 110.54 ± 17.8 mg/dL.

Q: What about the “Alanine amino transferase ALT” value [1] of the same compound?
A: Its value is 46.09 ± 6.13 IU/ml.

Q: And the “Alkaline phosphatase ALP” value [1]?
A: Its value is 21.59 ± 3.42 k.k./dl.

Q: What about the “Aspartate amino transferase AST” value [1] of the same compound?
A: The value was 112.81 ± 9.88 IU/ml.

Q: What about the “Alanine amino transferase ALT” value ([1]; listed as new compound) of the same compound?
A: Its value is “non-significant (n.s.) or slightly higher”.

Q: What about the “Alkaline phosphatase ALP” value ([1]; listed as new compound) of the same compound?
A: The value was “no significant changes”.

Q: And the “Aspartate amino transferase AST” value ([1]; listed as new compound)?
A: Its value is “non-significant (n.s.) or slightly higher”.

Q: And the “Cancer cell growth in single-dose screening” value [2]?
A: Its value is “significant decreases in cancer cell growth”.

Q: What about the “Morphological variations of HeLa cells” value (HeLa cells) of the same compound?
A: The value was “Changes in surface morphology were observed”.

Q: Which melting point does the source give for `Cc1ccc2c(N/N=C3\C(=O)Nc4ccccc43)cc(C)nc2n1` [Compound 8b, (3Z)-3-[2-(2,7-Dimethyl-1,8-naphthyridin-4-yl)hydrazinylidene]-1,3-dihydro-2H-indol-2-one] here?
A: Its melting point is greater than 300 °C.

Q: Which melting point does the source give for `Cc1ccc2c(N/N=C3\C(=O)Nc4ccc(Cl)cc43)cc(C)nc2n1` [Compound 8c, (3Z)-5-Chloro-3-[2-(2,7-dimethyl-1,8-naphthyridin-4-yl)hydrazinylidene]-1,3-dihydro-2H-indol-2-one] here?
A: Its melting point is greater than 300 °C.

Q: Which results are given for `COc1cccc2c1C(=O)c1c(O)c3c(c(O)c1C2=O)C[C@@](O)(C(=O)CO)C[C@@H]3O[C@H]1C[C@H](N)[C@H](O)[C@H](C)O1` [Doxorubicin]?
A: IC50 (HepG2 (Liver)): 3.56 µg/mL (≈ 6.55 µM); A/G ratio [1]: 1.078; Albumin [1]: 6.37 ± 0.85 mg/d1; Bilirubin [1]: 0.81 ± 0.19 mg/dL; Cholestrol [1]: 109.3 ± 14.2 mg/dL; Creatinine [1]: 0.78 ± 0.04 mg/dL; Globulin [1]: 5.91 ± 0.63 mg/dL; Total Lipids [1]: 21.94 ± 3.4 mg/dL; Triglycerides [1]: 137.8 ± 17.10 mg/dL; Alanine amino transferase ALT [1]: 59.26 ± 12.03 IU/ml; Alkaline phosphatase ALP [1]: 30.31 ± 5.14 k.k./dl; Aspartate amino transferase AST [1]: 147.22 IU/ml; Alanine amino transferase ALT ([1]; listed as DOX): significantly higher; Alkaline phosphatase ALP ([1]; listed as DOX): significantly increased; Aspartate amino transferase AST ([1]; listed as DOX): significantly higher
